Assays:
[1] = system: HeLa nuclear extracts; conditions: for ability to up-regulate transcription (activity in words, compared with AD 1): Example 9 numbering (FIG. 13/14A), ATF14 as positive control, FIG. 15
[2] = system: transcription mediated by 4; test: competition/squelching experiment: free activation domain added to in vitro transcription reactions containing the DNA-bound activator; assay type: biochemical, human; conditions: 1-10 μM concentration of free activation domain; FIG. 7
Experimental: In this experiment, micromolar concentrations of free activation domain are added to transcription reactions containing the DNA-bound activator and the corresponding affect on transcription levels is measured. Results with one of the activation domains (4) is shown (See, e.g., FIGS. 7-8).

Compound	ability to up-regulate transcription (activity in words, compared with AD 1) [1]	suppression of transcription mediated by 4 [2] [%]	transcriptional activation when the activation domain is not covalently linked to methotrexate (not localized to DNA) ([1]; isoxazolidine and methotrexate hydrazide 1 added separately in the same reaction, FIG. 6)
2-(4({(6-(Amino-methylcarbaminidoylimino-methyl)-pyrazin-2-ylmethyl)-methylamino}-methyl)-benzoylamino)-4-(2-(2-benzyl-(5RS)-hydroxymethyl-(3RS)-isobutylisoxazolidin-3-yl)-ethylidene-hydrazinocarbonyl)-(S)-butyric acid [isoxazolidine 6]	function well as transcriptional ADs		
2-(4({(6-(Amino-methylcarbaminidoylimino-methyl)-pyrazin-2-ylmethyl)-methylamino}-methyl)-benzoylamino)-4-(2-benzyl-(3RS)-(2-hydroxy-ethyl)-3-isobutylisoxazolidin-(5RS)-ylmethylene-hydrazinocarbonyl)-(S)-butyric acid [isoxazolidine 4]	indistinguishable from that of AD 1		
CC(C)C[C@]1(C/C=N/NC(=O)CC[C@H](NC(=O)c2ccc(N(C)Cc3cnc4nc(N)nc(N)c4n3)cc2)C(=O)O)C[C@](C)(CO)ON1CC(=O)O (racemic) [isoxazolidine 3, 2-(4({(6-(Amino-methylcarbaminidoylimino-methyl)-pyrazin-2-ylmethyl)-methylamino}-methyl)-benzoylamino)-4-{2-((5RS)-hydroxymethyl-2-(hydroxy-2-oxopropyl)-(3RS)-isobutyl-isoxazolidin-3-yl)-ethylidene-hydrazinocarbonyl}-(S)-butyric acid]	indistinguishable from that of AD 1		
COC(OC)C1CC(CCO)(CC(C)C)N(Cc2ccccc2)O1 (centres unmarked) [S8, 2-(2-Benzyl-5-dimethoxymethyl-3-isobutyl-isoxazolidin-3-yl)-ethanol]		~50	Little activation

From patent publication US7786310B2, “Small molecule transcriptional activation domains” (The Regents of the University of Michigan, priority 2004, dated 2010)
